Patent US6447749B1, “Perfluoro-alkyl containing dye molecules and galencial formulations” (Schering Aktiengesellschaft, priority 1999, dated 2002)

System: popliteal lymph node
Assay: Localization in lymph nodes by fluorescence microscopy on frozen sections
Format: in vivo
Details: guinea pig popliteal lymph node; four hours after interstitial administration; formulation 5 mol % of dye 8/95 mol % Gd complex; untreated animals no fluorescence
Protocol: The localization of the formulations according to the invention in lymph nodes was studied by fluorescence microscopy on frozen sections of the lymph nodes. In this respect, the lymph nodes were prepared after the lymphography and deep-frozen at −80° C. Sections with a 5 μm thickness were produced on a freezing microtome. The evaluation was carried out on a Zeiss Axiovert 135-fluorescence microscope, which was equipped with a Cy 7-(excitation filter HQ710/70 nm, emission filter 810/90 nm, beam splitter 750 nm LP). From all the preparations, white light and fluorescence images were recorded with a CCD camera (Princeton Instruments RTE/CCD-576) and stored digitally.
Images of a cryosection from a popliteal lymph node of an untreated guinea pig in bright field (3c) and in near-infrared-fluorescence (3d) are shown for comparison.

CC1(C)C(=CC=CC=CC=CC2=[N+](CCCCS(=O)(=O)[O-])c3ccc(C(=O)N(CCOCCC(F)(F)C(F)(F)C(F)(F)C(F)(F)C(F)(F)C(F)(F)C(F)(F)C(F)(F)F)CC(O)CO)cc3C2(C)C)N(CCCCS(=O)(=O)[O-])c2ccccc21.[Na+] (stereo not shown) [Dye 10, 5-{N-[2-(3,3,4,4,5,5,6,6,7,7,8,8,9,9,10,10,10-heptadecafluorodecyloxy)ethyl]-N-(2,3-dihydroxypropyl)aminocarbonyl}-2-{7-[1,3-dihydro-3,3-dimethyl-1-(4-sulfobutyl)-2H-indol-2-ylidene]-1,3,5-heptatrienyl}-3,3-dimethyl-1-(4-sulfobutyl)-3H-indolium, internal salt, sodium salt]
near-infrared fluorescence of lymph node frozen sections: pronounced fluorescence
